Reference: patent publication US10391201B2, “Gene therapy” (Ospedale San Raffaele S.r.l., priority 2014, dated 2019)

Experiments:
CD4+ T cells = assay: SINLV-GFP lentiviral transduction of activated CD4+ T cells; assay type: cell-based, human
Method: CD4^+ T cells were activated in RPMI, supplemented with 10% FBS, penicillin (100 IU/mL), streptomycin (100 μg/mL), 2% glutamine, phytohaemagglutanin (PHA) (2 μg/mL, Roche) and IL-2 (300 IU/mL, Novartis) for three days and maintained in RPMI supplemented with 10% FBS, penicillin (100 IU/mL), streptomycin (100 μg/mL), 2% glutamine and IL-2 (300 UI/mL). Monocyte-derived macrophages (MDM) were differentiated from isolated CD14^+ monocytes in DMEM supplemented with 10% FBS, penicillin (100 IU/mL), streptomycin (100 μg/mL), 2% glutamine and 5% human serum AB (Lonza) for seven days.
(§1) Human CB and BM-derived haematopoietic stem/progenitor cells (HSPC) were cultured in serum-free StemSpan medium (StemCell Technologies) supplemented with 100 ng/mL recombinant human stem cell factor (rhSCF), 20 ng/mL recombinant human thrombopoietin (rhTPO), 100 ng/mL recombinant human Flt3 ligand (rhFlt3) and 20 ng/mL recombinant human IL6 (rhIL6) (all from Peprotech) 16 to 24 hours prior to transduction. […] After transduction, cells were washed and maintained serum-free StemSpan supplemented with cytokines as above until the reading of GFP-positive (GFP+) cells by FACS. […]
GFP expression in transduced cells was measured 5-7 days post-transduction. […]

Murine Lin− HSPC = assay: SINLV-GFP transduction of murine Lin- HSPC; assay type: cell-based; conditions: MOI 1, 10 μM CsA, 10 μg/ml Rapamycin or combination (FIG. 29A)
Method: The percentage of GFP+ cells was evaluated by FACS 5 days post-transduction. Data are the mean±SEM of three independent experiments for HSPC and three independent transductions for CD4+ T cells. p values are for One way ANOVA with Bonferroni's multiple comparison.

[1] = system: CB-derived CD34+ HSPC clonogenic progenitors; assay: Colony-forming cell assay of transduced CB-derived CD34+ cells; assay type: cell-based, human; conditions: MOI 10; plating of vital cells in methylcellulose (FIG. 21A)
Method: Colony-forming cell assays were performed by plating 8×10^2 human cord blood-derived CD34^+ cells transduced with SINLV-GFP at a MOI of 10 in presence of the different compounds in a methylcellulose-based medium (Methocult GF4434, Stem Cell Technologies). 15 days later, colonies were scored by light microscopy for colony numbers and morphology. CFU-E and BFU-E were scored as erythroid colonies, while CFU-G, CFU-M, CFU-GM and CFU-GEMM as myeloid colonies.
Human differentiated cells from CFC were harvested from a single plate (pool of colonies) and mixed into a single cell suspension. Cells were then washed and resuspended in PBS containing 2% FBS. For immunostaining, cells were incubated with anti-human receptor blocking antibodies for 15 min at 4° C. and then stained for 20 min at 4° C. with anti-human CD235a and CD33 antibodies (for antibodies, see Table 1). To exclude dead cells from the analysis, cells were washed and resuspended in PBS containing 10 ng/mL 7-aminoactinomycin D (7-AAD).

BM-derived CD34+ cells = assay: γ-retroviral SINRV-GFP transduction of BM-derived CD34+ cells; assay type: cell-based, human; conditions: BM-derived HSPC; MOI of 10 (FIG. 24)
Method: A, B. The percentage of GFP+ cells was evaluated by FACS five days after transduction. Data represent the mean±SEM of four independent experiments.
Third generation lentivirus (LV) stocks were prepared, concentrated and titred as previously described (Dull, T. et al. (1998) J. Virol. 72: 8463-71; Follenzi, A. et al. (2000) Nat. Genetics 25: 217-22). […]. Bald vector, a normal LV produced by omitting the Env-encoding plasmid during vector production, was produced as a negative control. During vector production, the Env construct was substituted by pcDNA3.1 (Invitrogen Inc.). […]
as §1

Compound: CO[C@H]1C[C@@H]2CC[C@@H](C)[C@@](O)(O2)C(=O)C(=O)N2CCCC[C@H]2C(=O)O[C@H]([C@H](C)C[C@@H]2CC[C@@H](O)[C@H](OC)C2)CC(=O)[C@H](C)/C=C(\C)[C@@H](O)[C@@H](OC)C(=O)[C@H](C)C[C@H](C)/C=C/C=C/C=C/1C [rapamycin, Rapamycin]
- impact on transduction among the different CA mutants (CD4+ T cells; CA mutant SINLVs MOI 1): did not vary
- impact on LV transduction efficiency (in words) (CD4+ T cells; MOI 1, 20 μm FK506 or 10 μg/mL rapamycin): a similar trend was observed
- transduction (percentage of GFP+ cells) (Murine Lin− HSPC): significantly improved transduction
- number of total, CFU-GM (myeloid) and BFU-E (erythroid) colonies [1]: No significant differences
- percentage of GFP+ cells with γ-retroviral SINRV (BM-derived CD34+ cells): neither compound was able to significantly increase
